One data set addresses recombinant human HDAC1 (Homo sapiens (Human), UniProt Q13547). Kind of data set: Enzyme inhibitory activity assay on HDAC1. Format: biochemical. To be noted: 120 minutes preincubation at 25° C. The procedure:
(§1) For each test compound, 100× concentrated DMSO solutions at 8 doses were prepared and then diluted in assay buffer (25 mM Tris-HCl, pH 8, 130 mM NaCl, 0.05% Tween-20, 10% Glycerol) to obtain 5× concentrated solutions in relation to the final concentrations (typical final concentration range—6.4-200000 nM or 0.18-50000 nM, final DMSO content—1%). Then 10 μL solution of each test compound concentration were placed on a 96-well plate in triplicate and 15 μL of 3.33× concentrated enzyme solution in the assay buffer containing 3.33× concentrated BSA (final BSA concentration 1 mg/mL) and, in case of HDAC6, 3.33× concentrated TCEP (final TCEP concentration—200 μM) were added to each well. After a period of preincubation at 25° C. (30 minutes for HDAC6 and 120 minutes for HDAC1), 25 μL of solution containing the substrate were added. As substrate, FLUOR DE LYS® deacetylase substrate (Enzo Life Sciences, cat: BML-KI104, FdL), FLUOR DE LYS®-Green substrate (Enzo Life Sciences, cat: BML-KI572, FdL_G) or Boc-Lys(Tfa)-AMC (Bachem, cat: 4060676.005, Tfal)—2× concentrated solution in assay buffer were used. Following a reaction period (30 minutes at 25° C.), 50 μL of the development solution consisting of concentrate FLUOR DE LYS® developer I (Enzo Life Sciences, ca: BML-KI105), diluted 200 times in buffer (50 mM Tris-HCl, pH 8, 137 mM NaCl, 2.7 mM KCl, 1 mM MgCl2) plus 2 μM TSA was added and, after 25 minutes at room temperature in the dark, using the Victor 1420 Multilabel Counter Perkin Elmer Wallac instrument, the fluorescence reading was carried out (excitation/emission: 485/535 nM—Fluor de Lys Green, 355/460 nM—Tfal, Fluor de Lys).
(§2) Enzymatic activity on recombinant human HDAC6 and HDAC1 was evaluated (Table 2) for each synthesized compound.

In a further data set the target is recombinant human HDAC6 (Homo sapiens (Human), UniProt Q9UBN7). The data set can be described thus: Enzyme inhibitory activity assay on HDAC6. Format: biochemical. To be noted: 30 minutes preincubation at 25° C. The procedure:
as §1, §2

For data set [1], the system named is human B cell precursor leukemia 697. Kind of data set: In vitro α-tubulin acetylation in 697 cell line. Format: cell-based. To be noted: Homo sapiens, B-cell, 16 h; read-out: TubAc 697 cells EC50. The procedure: The in vitro α-tubulin acetylation was evaluated on human B cell precursor leukemia 697.
The 697 cells were maintained in RPMI Medium 1640 (Gibco, cat: 21875-034) supplemented with 10 mM HEPES (Gibco, cat: 15630-080), Pen-Strep (Penicillin 100 U/ml, Streptomycin 100 μg/ml, Gibco, cat: 15140-122) and 10% fetal bovine serum (Gibco, cat: 10270-106).
The cells were plated in 12-well plates (Costar, cat: 3512) at the density of 5.5×10^5 cells/ml.
Serial dilutions of test compounds in DMSO were prepared using 20 mM stock solutions to obtain 8 doses 200× concentrated in respect to final doses (2.7-100000 nM). Then the DMSO solutions were diluted 10× in culture medium to obtain 20× concentrated solutions which were used for cells treatment (125 μl of medium solutions were added to 2.375 ml of cells suspension). The final DMSO content was set as 0.5%. The plates were incubated at 37° C., 5% CO2 for 16 hours.
At the end of the incubation period, the cells were harvested and centrifuged for 5 minutes at 200×g and washed with 0.9% NaCl at 4° C. The resulting pellet was treated for 30 minutes at 4° C. with 100 μl Complete Lysis-M buffer containing protease inhibitors (Complete Lysis-M Roche+Complete Tablets, Mini Easypack, cat: 4719956001) and phosphatase inhibitor cocktails (PhosStop Easypack, Roche, cat: 4906837001) and then centrifuged 10 minutes at 18213×g. The protein concentration in each supernatant was determined using BCA Protein Assay Kit (Pierce, cat: 23227). The samples were diluted in PBS 1× to obtain 2 μg/ml concentration and coated in MaxiSorp 96-well plates (Nunc, cat: 442404). The plates were incubated overnight at room temperature.
Plates were washed twice with Wash Buffer (PBS 1×+0.005% tween 20) and saturated for 1 hour at room temperature with 300 μL of 1×PBS containing 10% FBS. After washing twice with Wash Buffer, the plates were incubated for 2 hours at room temperature in the presence of 100 μl/well either anti-acetylated-α-tubulin antibody (Monoclonal Anti-Tubulin, Acetylated antibody produced in mouse, Sigma-Aldrich, cat: T6793) or total anti-α-tubulin antibody (Monoclonal Anti-α-Tubulin produced in mouse, Sigma-Aldrich, cat: T6074) diluted 1:1000 in 1×PBS containing 10% FBS. Following 5 washing cycles with Wash Buffer the secondary antibody conjugated with the enzyme HRP (Goat anti-Mouse IgG, IgM, IgA (H+L), stock concentration 0.5 mg/ml, Thermo Fisher Scientific, cat: A10668), diluted 1:1000 in 1×PBS+10% FBS was added at the volume of 100 μl/well. After two hours of incubation at room temperature the plates were washed 4 times with Wash Buffer, then 100 μl/well of TMB substrate (TMB substrate kit, Thermo Fisher Scientific, cat: 34021) was added for 10 minutes at room temperature in the dark. The reaction was stopped by adding 50 μl of 2M H2SO4. The plates were read in BioTek Synergy H1 multimode microplate reader at a wavelength of 450 nm.
The measured absorbance was corrected by subtracting the mean of blank values (samples without the primary antibody). The absorbance ratios of acetyl to total tubulin assays were calculated and normalized to the reference compound (positive control) 4 parameter logistic curve, where 0% is the fitted bottom and 100% is the fitted top of the curve. The results are expressed as relative EC50.

The subject of another data set is HDAC6. Kind of data set: Kinetic of prodrug disappearing when incubated with HDAC6 (LC-HRMS). Format: biochemical. To be noted: HDAC6 1 μM, 5 μM compound, 25° C.; for half-life at 5 µM: HDAC6 enzyme in assay buffer, read-out: T1/2 of prodrug disappearing. How it is done:
The LC-HRMS analysis was carried out using a Vanquish Flex UHPLC (Thermo Fisher Scientific) and a high-resolution mass spectrometer Orbitrap QExactive Focus (Thermo Fisher Scientific), equipped with a Heated Electrospray Ionization, operated in positive mode. A Full Scan analysis was set in the m/z range 50-500 amu. A XSelect HSS T3 50×2.1 mm, 2.5 μm chromatographic column (Waters) was used. Mobile phase A consisted of 0.1% formic acid in water and mobile phase B in 0.1% formic acid in acetonitrile. The flow rate was set to 0.5 mL/min, with a gradient program from 3 to 20% B in 3 minutes.

We go through 20 compounds from patent US20260049078A1, “DIFLUORO- AND TRIFLUORO-ACETYL HYDRAZIDES AS SELECTIVE HDAC6 INHIBITORS” (ITALFARMACO S.P.A., priority 2022, published 2026).

Chain of recombinant human HDAC1 (Q13547 whole entry): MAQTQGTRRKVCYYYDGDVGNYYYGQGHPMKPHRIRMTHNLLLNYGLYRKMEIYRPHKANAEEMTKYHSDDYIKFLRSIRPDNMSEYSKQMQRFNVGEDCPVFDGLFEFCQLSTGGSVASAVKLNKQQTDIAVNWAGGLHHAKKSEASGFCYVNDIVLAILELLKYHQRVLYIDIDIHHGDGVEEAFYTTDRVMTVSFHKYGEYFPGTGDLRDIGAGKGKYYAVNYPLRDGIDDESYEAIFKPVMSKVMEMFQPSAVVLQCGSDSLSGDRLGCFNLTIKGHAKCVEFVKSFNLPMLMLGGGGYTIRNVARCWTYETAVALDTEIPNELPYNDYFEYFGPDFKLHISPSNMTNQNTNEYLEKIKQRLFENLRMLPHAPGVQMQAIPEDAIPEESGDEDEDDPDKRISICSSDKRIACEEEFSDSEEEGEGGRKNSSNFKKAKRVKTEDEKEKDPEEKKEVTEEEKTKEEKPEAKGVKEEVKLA
Chain of recombinant human HDAC6 (Q9UBN7 whole entry): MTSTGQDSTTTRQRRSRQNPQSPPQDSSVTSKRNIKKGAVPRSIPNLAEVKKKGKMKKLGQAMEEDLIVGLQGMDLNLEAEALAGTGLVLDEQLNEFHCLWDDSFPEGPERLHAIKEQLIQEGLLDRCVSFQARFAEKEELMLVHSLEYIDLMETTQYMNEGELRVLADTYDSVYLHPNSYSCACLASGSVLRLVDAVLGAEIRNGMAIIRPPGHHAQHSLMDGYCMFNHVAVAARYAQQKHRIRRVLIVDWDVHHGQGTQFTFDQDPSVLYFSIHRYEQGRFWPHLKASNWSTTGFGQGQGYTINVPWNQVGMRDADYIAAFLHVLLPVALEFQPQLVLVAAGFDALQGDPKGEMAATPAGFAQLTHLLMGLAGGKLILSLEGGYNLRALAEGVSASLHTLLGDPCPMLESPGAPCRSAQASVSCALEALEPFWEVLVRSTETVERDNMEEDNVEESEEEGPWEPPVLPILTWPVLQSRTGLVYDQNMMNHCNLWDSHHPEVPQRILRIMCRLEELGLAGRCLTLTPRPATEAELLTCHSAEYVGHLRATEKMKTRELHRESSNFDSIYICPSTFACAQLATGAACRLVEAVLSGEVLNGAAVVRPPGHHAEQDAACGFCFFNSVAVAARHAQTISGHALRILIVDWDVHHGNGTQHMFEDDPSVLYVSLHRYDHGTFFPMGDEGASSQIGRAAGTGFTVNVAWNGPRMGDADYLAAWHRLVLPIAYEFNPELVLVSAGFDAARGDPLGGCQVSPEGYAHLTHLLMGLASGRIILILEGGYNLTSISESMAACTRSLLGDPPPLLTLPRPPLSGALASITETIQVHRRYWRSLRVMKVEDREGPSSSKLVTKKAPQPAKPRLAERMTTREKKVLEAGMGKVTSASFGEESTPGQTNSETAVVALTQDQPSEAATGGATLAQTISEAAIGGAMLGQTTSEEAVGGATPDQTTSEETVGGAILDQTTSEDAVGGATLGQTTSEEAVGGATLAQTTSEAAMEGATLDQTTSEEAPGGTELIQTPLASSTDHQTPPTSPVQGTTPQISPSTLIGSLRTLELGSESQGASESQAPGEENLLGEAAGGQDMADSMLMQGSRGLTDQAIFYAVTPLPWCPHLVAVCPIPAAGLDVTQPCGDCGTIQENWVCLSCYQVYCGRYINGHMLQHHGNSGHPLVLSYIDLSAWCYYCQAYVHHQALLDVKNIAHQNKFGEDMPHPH

The term IC50 denotes the concentration that gives 50% inhibition. By EC50 is commonly meant the midpoint of the concentration-response curve. As for `Cc1ccc(-c2cn(Cc3ccc(-c4nnc(C(F)F)o4)cn3)nn2)cc1` [Compound 8-A], the IC50 was more than 100000 nM on recombinant human HDAC1 and 65 nM on recombinant human HDAC6. For the same compound, the EC50 in data set [1] worked out at 419 nM.

In the case of `Cc1cccc(-c2cn(Cc3ccc(-c4nnc(C(F)F)o4)cn3)nn2)c1` [Compound 9-A], the IC50 on recombinant human HDAC1 was more than 100000 nM; on recombinant human HDAC6 it was 40 nM. For the same compound, the EC50 in data set [1] was determined as 385 nM.

`CC(=O)Nc1cccc(-c2cn(Cc3ccc(-c4nnc(C(F)F)o4)cc3F)nn2)c1` [Compound 12-A]: the results for the IC50 on recombinant human HDAC1 and on recombinant human HDAC6 were more than 100000 nM and 57 nM, respectively. Moreover, in data set [1], the concentration for a half-maximal effect (EC50) came to 346 nM.

For the compound `Fc1cc(-c2nnc(C(F)F)o2)cnc1Cn1cc(-c2ccccn2)nn1` [Compound 15-A], the figures for the IC50 on recombinant human HDAC1 and on recombinant human HDAC6 were more than 100000 nM and 100 nM, respectively.

`FC(F)c1nnc(-c2ccc(Cn3nnc(-c4ccccc4)n3)nc2)o1` [Compound 16-A]: the IC50 was more than 100000 nM on recombinant human HDAC1 and 40 nM at recombinant human HDAC6. Also, the concentration for a half-maximal effect (EC50) in data set [1] worked out at 1090 nM.

Take `FC(F)c1nnc(-c2ccc(Cn3nnc(-c4cccs4)n3)nc2)o1` [Compound 17-A]: the IC50 at recombinant human HDAC1 is more than 100000 nM; at recombinant human HDAC6 it was 41 nM. In addition, the half-maximal effective concentration (EC50) in data set [1] stood at 648 nM.

For `Fc1cccc(-c2cn(Cc3ccc(-c4nnc(C(F)F)o4)cn3)nn2)c1` [Compound 18-A], the 50% inhibitory concentration (IC50) was more than 100000 nM on recombinant human HDAC1 and 56 nM at recombinant human HDAC6. In data set [1], the EC50 is 582 nM.

For `FC(F)c1nnc(-c2ccc(Cn3cc(-c4cccs4)nn3)nc2)o1` [Compound 19-A], the IC50 on recombinant human HDAC1 was more than 100000 nM; on recombinant human HDAC6 it was 31 nM. Further, the EC50 in data set [1] is 579 nM.

Regarding `FC(F)c1nnc(-c2ccc(Cn3cc(-c4ccc5[nH]ccc5c4)nn3)nc2)o1` [Compound 27-A], the results for the IC50 at recombinant human HDAC1 and on recombinant human HDAC6 were more than 100000 nM and 15 nM, respectively. Also, the EC50 in data set [1] was 119 nM.

Take `CC(c1ccc(-c2nnc(C(F)F)o2)cc1F)n1cc(-c2ccc3nc(N)sc3c2)nn1` (stereo not shown) [Compound 30-A, 6-(1-(1-(4-(5-(difluoromethyl)-1,3,4-oxadiazol-2-yl)-2-fluorophenyl)ethyl)-1H-1,2,3-triazol-4-yl)benzo[d]thiazol-2-amine]: the EC50 in data set [1] turned out to be 1390 nM.

As to `Nc1nc2ccc(-c3cn(Cc4ccc(-c5nnc(C(F)F)o5)c(Cl)c4)nn3)cc2s1` [Compound 31-A], the half-life at 5 µM in the data set with HDAC6 was 129 min.

For `FC(F)c1nnc(-c2ccc(Cn3cc(-c4cccc5[nH]ncc45)nn3)nc2)o1` [Compound 34-A], the IC50 is more than 100000 nM at recombinant human HDAC1 and 20 nM on recombinant human HDAC6. Also, the EC50 in data set [1] stood at 167 nM.

As to `Fc1cc(-c2nnc(C(F)F)o2)ccc1Cn1cc(-c2cccc3[nH]ccc23)nn1` [Compound 36-A], the IC50 on recombinant human HDAC1 is more than 100000 nM; on recombinant human HDAC6, 54 nM. Further, the EC50 in data set [1] is 167 nM.

On to `Fc1cc(-c2nnc(C(F)F)o2)cnc1Cn1cc(-c2cccc3[nH]ccc23)nn1` [Compound 40-A], for which the IC50 at recombinant human HDAC1 was more than 100000 nM; on recombinant human HDAC6, 44 nM. Besides, the EC50 in data set [1] came to 849 nM.

With `Nc1ccc(-c2cn(Cc3c(F)cc(-c4nnc(C(F)(F)F)o4)cc3F)nn2)cn1` [Compound 42-A], the half-life at 5 µM with HDAC6 turned out to be 40.5 min.

As to `Nc1ccc(-c2cn(Cc3ccc(-c4nnc(C(F)(F)F)o4)cc3F)nn2)cn1` [Compound 43-A], the half-life at 5 µM in the data set on HDAC6 was 23.1 min.

On to `Nc1ccc(-c2cn(Cc3ccc(-c4nnc(C(F)(F)F)o4)c(F)c3)nn2)cn1` [Compound 44-A], for which the half-life at 5 µM with HDAC6 was determined as 11.3 min.

As for `Nc1ccc(-c2cn(Cc3c(F)cc(-c4nnc(C(F)F)o4)cc3F)nn2)cn1` [Compound 46-A], the IC50 at recombinant human HDAC1 was more than 100000 nM. Moreover, the EC50 in data set [1] stood at 788 nM. The “percentage of compound concentration (prodrug remaining)” value (“percentage … (prodrug remaining)” for short) stood at 100.00% with HDAC6 (time 0 min); 42.4% with HDAC6 (time 30 min); 17.4% in the data set on HDAC6 (time 60 min); 2.7% in the data set on HDAC6 (time 120 min); 0.0% in the data set on HDAC6 (time 240 min); 0.0% with HDAC6 (time 360 min). Also, the “percentage … (prodrug remaining)” value with HDAC6 (time 480 min) was 0.0%. In addition, the half-life at 5 µM with HDAC6 amounted to 22.9 min.

For the compound `Nc1ccc(-c2cn(Cc3ccc(-c4nnc(C(F)F)o4)cc3F)nn2)cn1` [Compound 47-A], the IC50 at recombinant human HDAC1 is more than 100000 nM. Besides, in data set [1], the EC50 was determined as 871 nM. For the same compound, the “percentage … (prodrug remaining)” value in the data set on HDAC6 (time 0 min) was determined as 100.00%; in the data set on HDAC6 (time 30 min), 53.6%; in the data set on HDAC6 (time 60 min), 29.7%; with HDAC6 (time 120 min), 7.4%; with HDAC6 (time 240 min), 0.4%; in the data set on HDAC6 (time 360 min), 0.0%. The “percentage … (prodrug remaining)” value in the data set with HDAC6 (time 480 min) was determined as 0.0%. The half-life at 5 µM in the data set on HDAC6 was determined as 29.3 min.

As to `Nc1ccc(-c2cn(Cc3ccc(-c4nnc(C(F)F)o4)s3)nn2)cn1` [Compound 49-A], the EC50 in data set [1] came out at 29 nM.
